Consider eleven molecules from ChEMBL document CHEMBL1126915, “Solvent-dependent conformation and hydrogen-bonding capacity of cyclosporin A: evidence from partition coefficients and molecular dynamics simulations” (J Med Chem, 1993).

Holding throughout (settings): octanol/water
The nature of series [1]: physchem.
Description: Partition coefficient (logP)
Series [2] in a line: Partition coefficient of compound was measured in heptane/water system.
Series [3] in a line: physchem. The source holds these as a separate data set.
Description: Partition coefficient (logP)

A word on the logP: it is the decadic logarithm of the partition coefficient of the neutral form, usually between octanol and water. A lower logP goes with lower lipophilicity.

With `CC(=O)Nc1ccccc1F`, the logP in series [1] and in series [3] was 0.96 each time. The “Log Phep” value in series [2] is -0.69.

Regarding `CC(=O)Nc1ccc(F)cc1`, the logP in series [1] is 1.61; in series [3], 1.47. Also, the “Log Phep” value in series [2] was -1.57.

As to `O=[N+]([O-])c1ccc(O)cc1` [P-NITROPHENOL], the logP in series [1] is 1.85; in series [3], 1.77. In addition, the “Log Phep” value in series [2] is -2.11.

Consider `NC(=O)c1ccc(F)cc1`, for which the logP came out at 1 in series [1] and 0.96 in series [3]. In addition, the “Log Phep” value in series [2] is -2.34.

As to `Oc1ccccc1` [PHENOL], the “Log Phep” value in series [2] was -0.82.

Turning to `NC(=O)c1ccccc1F`, the logP in series [1] was found to be 0.5; in series [3], 0.64. In addition, in series [2], the “Log Phep” value is recorded as -1.47.

Take `O=[N+]([O-])c1ccccc1O` [NITROPHENOLATE]: the logP was 1.85 in series [1] and 1.68 in series [3]. For the same molecule, the “Log Phep” value in series [2] was 1.04.

For the molecule `O=C1N[C@@H](Cc2ccccc2)C(=O)N[C@H]1Cc1ccccc1`, the figures for the logP in series [1] and in series [3] were 2.86 and 1.59, respectively. The molecule also yielded a Log Phep in series [2] below -3.

Turning to `O=C1N[C@H](Cc2ccc(O)cc2)C(=O)N[C@H]1Cc1c[nH]c2ccccc12`, the logP was 2.19 in series [1] and 1.05 in series [3]. For the same molecule, the Log Phep in series [2] is below -3.

With `CC(=O)Nc1ccccc1` [ACETANILIDE], in series [2], the “Log Phep” value is given as -1.54.

With `NC(=O)c1ccccc1` [BENZAMIDE], in series [2], the “Log Phep” value is -2.45.
